Earlier results in patent US20220401441A1, “PHARMACEUTICAL COMPOSITION COMPRISING SELEXIPAG” (ACTELION PHARMACEUTICALS LTD, priority 2019, published 2022).

Tested on: patients with pulmonary arterial hypertension
Settings: selexipag versus placebo

CC(C)N(CCCCOCC(=O)NS(C)(=O)=O)c1cnc(-c2ccccc2)c(-c2ccccc2)n1 [selexipag, 2-{4-[N-(5,6-diphenylpyrazin-2-yl)-N-isopropylamino]butyloxy}-N-(methylsulfonyl)acetamide]
risk of the primary composite end point of death or a complication related to pulmonary arterial hypertension: significantly lower
